# “And” between values parts separate entries of the source, which are not always exact repeats. Equal entries are not always repeated. Where two headings read alike, the source gives them in different places.
# What was measured:
# [1] = tested on: glucocorticoid receptor (GR) activation in HEK293/MMTV-Luc cells; assay: MMTV luciferase reporter bioassay in parental HEK293/MMTV-luc cells; format: cell-based, human; conditions: 72 hrs of incubation
# Protocol: (§1) HEK293 cell line was first generated to stably express a luciferase reporter pGL4.36[luc2P/MMTV/Hygro] (Promega, #E136A), referred to herein as HEK293/MMTV-luc, and maintained in DMEM containing 10% FBS, NEAA, penicillin/streptomycin/L-glutamine, and 100 μg/mL hygromycin (complete media). […] The resulting cell line referred to herein as, HEK293/MMTV-luc/IL-2Rγ/IL7R, was maintained in complete media supplemented with 1 μg/mL puromycin, and 500m/mL G418 sulfate.
# (§2) For the bioassay, HEK293/MMTV-luc or HEK293/MMTV-luc/IL2Rγ/IL7R cells were seeded onto 96-well assay plates at 10,000 cells/well in complete media and incubated at 37° C. in 5% CO2 overnight. […] The concentrations were adjusted according to drug-to-antibody ratio for ncADCs and other techniques known to those of skill in the art. One well without any test article was also included as a control.
# (§3) Luciferase activity was measured after 6, 24, 48, and 72 hours of incubation in 37° C. at 5% CO2 on a Victor X instrument (Perkin Elmer). The results were analyzed using nonlinear regression (4-parameter logistics) with Prism 6 software (GraphPad) to obtain EC50 values. Fold activation was calculated by determining the ratio of the luciferase activity of each sample to that observed without any test article added
# [2] = tested on: GR activation in 293/GRE-Luc cells (293_PBind GR/UAS-Luc); assay: Luciferase reporter assay in antigen negative 293/GRE-Luc cells; format: cell-based, human; conditions: read-out: EC50 in 293/GRE-Luc; 72 hrs of incubation; antigen negative cells
# [3] = tested on: glucocorticoid receptor (GR) activation in HEK293/MMTV-luc/IL-2Rγ/IL7R cells; assay: IL2Rγ-ncADC bioassay, MMTV luciferase reporter in HEK293/MMTV-luc/IL2Rγ/IL7R cells; format: cell-based, human
# Protocol: as §1, §2, §3
# [4] = tested on: GR activation in 293/PRLR/GRE-Luc cells (HEK293/9xUAS-Luc2P/pBind-GR/PRLR-HA high cells); assay: GR co-activator luciferase reporter cell based assay in 293/PRLR/GRE-Luc cells; parameters: species or system human
# Summary of the method: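 HEK293 cells stably expressing PRLR, a Gal4–GR LBD chimera and a 9×Gal4UAS-Luc2P reporter were seeded at 20,000 per well and treated with free steroid or anti-PRLR steroid ADC. Luciferase (One-Glo) was read as RLU, and EC50 was fitted by four-parameter logistic over 10 points. Minimal activation means under 10% of free-payload maximum.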
# [5] = tested on: GR activation in 293/MMTV-Luc cells; assay: Luciferase reporter assay in 293/MMTV-Luc cells (do not express PRLR); format: cell-based, human; conditions: for GRE-Luc activation: 293/MMTV-Luc cells, 72 hours
# From the text: In a second example, a bioassay assessed both the efficacy of free steroids as well as any nonspecific activity by anti-PRLR-ncADCs.
# [6] = tested on: human monocyte derived-DC; assay: Ex vivo LPS-induced cytokine production in human monocyte derived DCs; format: cell-based; parameters: IL-6 / IL-8 / TNF-a / IL-12p70 / IL-1b: unit not given here
# Protocol: The complete-RPMI with IL4 and GM-CSF was changed every three days. […]
# (§4) Supernatants were collected into 96-well round bottom tissue culture plates 24 hours post-LPS challenge and stored at −20° C. until further analysis. Cytokine concentrations in the supernatants were measured using a Pro-inflammatory Panel 1 (mouse) multiplex immunoassay kit (MesoScale Discovery, Cat #K15048D) according to manufacturer's instructions or Pro-inflammatory Panel 1 (human) multiplex immunoassay kit (MesoScale Discovery, Cat #K15049D). In brief, 50 μL/well of calibrators and samples (diluted in Diluent 1:2) were added to the plates pre-coated with capture antibodies and incubated at room temperature while shaking at 700 rpm for 2 hours. The plates were then washed 3 times with 1×PBS containing 0.05% (w/v) Tween-20, followed by the addition of 25 μL of Detection Antibody Solution diluted in Diluent 45. After 2-hour incubation at room temperature while shaking, the plates were washed 3 times, and 150 μL of 2× Read Buffer was added to each well. Electrochemiluminescence was immediately read on a MSD Spector® instrument. Data analysis was performed using GraphPad Prism™ software. Statistical significance within the groups was determined by one-way Anova with Turkey's multiple comparison post-test and standard error of mean (SEM±) calculated.
# CD11c+ splenic DCs = assay: Ex vivo LPS-induced cytokine production in mouse splenic CD11c+ dendritic cells; format: cell-based, C57Bl/6 mice; parameters: TNF-a / IL-12p70 / IL-1b / IL-6 / KC-GRO: unit not given here
# Protocol: as §4
# [7] = tested on: LPS-induced cytokine release (TNF-α); assay: Mouse model of LPS induced cytokine release (TNF-α in plasma); format: in vivo, C57BL/6j mice
# [8] = Pharmacokinetics of 4b and 6-I in mice (blood concentration-time); format: in vivo, C57BL/6j mice; conditions: IP, 1 mg/Kg in male C57BL/6 mice; Mean
# [9] = 6, 24, and 48 hours of incubation
# [10] = 293/PRLR/GRE-Luc cells, 72 hours
# [11] = read-out: EC50 in 293/PRLR/GRE-Luc, 72 hrs of incubation
smiles,measurement,setting,value
"CCCC1O[C@@H]2C[C@H]3[C@@H]4CCC5=CC(=O)C=C[C@]5(C)[C@H]4[C@@H](O)C[C@]3(C)[C@]2(C(=O)CO)O1 (stereo partly drawn) [Budesonide, budesonide, reference compound]",Activation in HEK293/MMTV-Luc cells,[1],showed activation
same,EC50,[2],< 0.005 µM
same,GRE-Luc activation,[4]; [10],full GRE-Luc activation
same,EC50,"[4]; 293/PRLR/GRE-Luc cells, 72 hours, read-out: EC50",< 0.01 µM
same,EC50,"[4]; 293/PRLR/GRE-Luc cells, 72 hours, read-out: EC50 of GRE-Luc activation",< 0.01 µM
same,EC50,"[4]; 72 hours of incubation, read-out: HEK293/9xUAS-Luc2P/pBind-GR/PRLR-HA high cells EC50",< 0.01 µM
same,EC50,[4]; [11],0.005 to 0.01 µM
same,EC50,[4]; read-out: HEK293/9xUAS-Luc2P/pBind-GR/PRLR-HA high cells EC50,< 0.01 µM
same,GRE-Luc activation,[5],full GRE-Luc activation
"C[C@@H]1C[C@H]2[C@@H]3CCC4=CC(=O)C=C[C@]4(C)[C@@]3(F)[C@@H](O)C[C@]2(C)[C@@]1(O)C(=O)CO [Dexamethasone, dexamethasone, reference compound]",IL-1b,[6],0.625 ± 0.006
same,Pro-inflammatory cytokine production,[6]; Condition 1: entire 7-day conditioning period,significantly reduced pro-inflammatory cytokine production
same,IL-1b,"[6]; Condition 1, 10 nM + LPS",1.77 ± 0.11
same,IL-6,"[6]; Condition 1, 10 nM + LPS",687.45 ± 2.17
same,IL-8,"[6]; Condition 1, 10 nM + LPS",8789.98 ± 126.98
same,IL-12p70,"[6]; Condition 1, 10 nM + LPS",4.83 ± 0.05
same,TNF-a,"[6]; Condition 1, 10 nM + LPS",242.34 ± 10.75
same,IL-6,"[6]; Condition 1, 10 nM, no LPS",2.68 ± 0.03
same,IL-8,"[6]; Condition 1, 10 nM, no LPS",174.59 ± 0.68
same,IL-12p70,"[6]; Condition 1, 10 nM, no LPS",0.65 ± 0.02
same,TNF-a,"[6]; Condition 1, 10 nM, no LPS",2.32 ± 0.098
same,"Production of IL12p70, IL6 and TNF-α",[6]; Condition 2: conditioning of mature monocyte-derived DCs,"significantly decreased the production of IL12p70, IL6 and TNF-α"
same,IL-1b,"[6]; Condition 2, 10 nM + LPS",37.88 ± 1.90
same,IL-6,"[6]; Condition 2, 10 nM + LPS",5747.37 ± 234.08
same,IL-8,"[6]; Condition 2, 10 nM + LPS",3314.0 ± 37.86
same,IL-12p70,"[6]; Condition 2, 10 nM + LPS",6.32 ± 1.69
same,TNF-a,"[6]; Condition 2, 10 nM + LPS",994.92 ± 73.66
same,IL-1b,"[6]; Condition 2, 10 nM, no LPS",0.611 ± 0.003
same,IL-6,"[6]; Condition 2, 10 nM, no LPS",14.76 ± 0.267
same,IL-8,"[6]; Condition 2, 10 nM, no LPS",288.23 ± 6.02
same,IL-12p70,"[6]; Condition 2, 10 nM, no LPS",0.64 ± 0.03
same,TNF-a,"[6]; Condition 2, 10 nM, no LPS",1.73 ± 0.02
same,IL-1b,CD11c+ splenic DCs; 10 nM + LPS,34.76 ± 4.33
same,IL-6,CD11c+ splenic DCs; 10 nM + LPS,714.89 ± 77.13
same,IL-12p70,CD11c+ splenic DCs; 10 nM + LPS,30.41 ± 3.22
same,KC-GRO,CD11c+ splenic DCs; 10 nM + LPS,399.40 ± 49.75
same,TNF-a,CD11c+ splenic DCs; 10 nM + LPS,2496.27 ± 415.75
same,LPS-induced cytokine responses in CD11c+ DCs,CD11c+ splenic DCs; 10 nM and 100 nM for 24 hours before LPS 10 ng/mL,significantly decreased LPS-induced cytokine responses
same,IL-1b,"CD11c+ splenic DCs; 10 nM, no LPS",6.299 ± 0.33
same,IL-6,"CD11c+ splenic DCs; 10 nM, no LPS",98.93 ± 8.98
same,IL-12p70,"CD11c+ splenic DCs; 10 nM, no LPS",8.55 ± 1.08
same,KC-GRO,"CD11c+ splenic DCs; 10 nM, no LPS",75.75 ± 8.03
same,TNF-a,"CD11c+ splenic DCs; 10 nM, no LPS",0 ± 0
same,IL-1b,CD11c+ splenic DCs; 100 nM + LPS,10.58 ± 0.88
same,IL-6,CD11c+ splenic DCs; 100 nM + LPS,303.48 ± 11.37
same,IL-12p70,CD11c+ splenic DCs; 100 nM + LPS,9.29 ± 3.28
same,KC-GRO,CD11c+ splenic DCs; 100 nM + LPS,233.49 ± 18.48
same,TNF-a,CD11c+ splenic DCs; 100 nM + LPS,405.49 ± 70.23
same,IL-1b,"CD11c+ splenic DCs; 100 nM, no LPS",5.25 ± 0.12
same,IL-6,"CD11c+ splenic DCs; 100 nM, no LPS",55.07 ± 1.76
same,IL-12p70,"CD11c+ splenic DCs; 100 nM, no LPS",6.05 ± 1.13
same,KC-GRO,"CD11c+ splenic DCs; 100 nM, no LPS",65.99 ± 2.75
same,TNF-a,"CD11c+ splenic DCs; 100 nM, no LPS",0 ± 0
same,EC50,[2],< 0.005 µM
same,Inhibition of TNF-α production,"[7]; 5 mpk ip before LPS challenge, plasma at 2 hr time point",significantly inhibit TNF-α
same,TNF-a,"[7]; plasma 2 hr post LPS challenge, 5MPK ip (−2 h) prior to LPS, individual mice, listed as DEX",644.3 pg/mL and 508.5 pg/mL and 487.1 pg/mL
same,AUCINF,[8],0.562 µg·h/mL
same,AUClast,[8],0.545 µg·h/mL
same,Cmax,[8],0.231 µg/mL
same,EC50,[4]; [11],< 0.005 µM
CCCC1O[C@@H]2C[C@H]3[C@@H]4CCC5=CC(=O)C=C[C@]5(C)[C@H]4[C@@H](O)C[C@]3(C)[C@]2(C(=O)COc2ccc(N)cc2)O1 (stereo in doubt) [Compound 11-5],Activation in HEK293/MMTV-Luc cells,[1],showed activation
same,GR activation,[3]; [9],partial activation
same,Fold Activation,[3]; 6 hours,Partial
same,Fold Activation,[3]; 24 hours,Partial
same,Maximum fold activation,[3]; 24 hrs of incubation,relatively lower levels of activation compared to budesonide
same,Fold Activation,[3]; 48 hours,Partial
same,Fold Activation,[3]; 72 hours,Full
same,GR activation,[3]; 72 hours of incubation,full activations
same,EC50,"[3]; Homo sapiens, HEK293, 6 h",> 0.1 µM
same,EC50,"[3]; Homo sapiens, HEK293, 24 h",> 0.1 µM
same,EC50,"[3]; Homo sapiens, HEK293, 48 h",0.01 to 0.1 µM
same,EC50,"[3]; Homo sapiens, HEK293, read-out: EC50 of GR activation",0.01 to 0.1 µM
same,EC50 potency class,[3]; at 24 hours,+ (+: >100 nM)
same,EC50 potency class,[3]; at 48 hours,++ (++: 10-100 nM)
same,Fold Activation,[4]; [10],Full
same,GRE-Luc activation,[4]; [10],full GRE-Luc activation
same,EC50,"[4]; Homo sapiens, HEK293, 72 h, read-out: EC50 of GRE-Luc activation",< 0.01 µM
same,GRE-Luc activation,[5],full GRE-Luc activation
same,EC50,"[5]; Homo sapiens, 72 h, read-out: EC50 of GRE-Luc activation",0.01 to 0.1 µM
